Measured values reported in patent US7960373B2, “2-alkoxy-3,4,5-trihydroxyalkylamide-benzothiazepines preparation thereof, compositions containing them and use thereof” (Sanofi-Aventis, priority 2006, dated 2011).

What was measured:
[1] = test system: HCT116 cells; assay: inhibition of cell proliferation of HCT116 cells (14C-thymidine incorporation); assay type: cell-based; details: Homo sapiens, HCT-116, HCT116, 96 hours
Protocol: The antiproliferative activity of the products of the examples of Table 1 was determined by measuring the inhibition of cell proliferation of HCT116 cells. The cells are inoculated in a cell culture medium at a concentration of 10 000 cells per well, in 0.17 mL of medium, and 20 μL of test product, at various concentrations, and 10 μL of thymidine [methyl-14C] (100 μCi/ml—specific activity 47.90 mCi/mmol; NEN Technologies reference NEC568 batch 3550-001) are added, and the cells are then incubated at 37° C. and 5% CO2.
Medium used for the HCT116 cell culturing: DMEM medium 2 mM L-glutamine, 200 IU/ml penicillin, 200 μg/mL streptomycin and 10% (V/V) foetal calf serum (Life Technologies).
After 96 hours, the incorporation of ^14C-thymidine is counted in a 1450 Microbeta Wallac Trilux liquid scintillation counter. The results R are expressed in cpm (counts per minute) and converted to a percentage of growth inhibition GI % by first subtracting the average number of cpm for the wells without B cells and then dividing the number of cpm for the wells of the untreated cells C comprising 20 μL of product dilution medium containing 1% ethanol. (GI %=(R−B)×100/C %).
The IC50 values are calculated by means of equation 205 of the XLFit software (IDBS company, UK) via non-linear regression analysis using the Marquardt algorithm (Donald W. Marquardt, J. Soc. Industry. Appl., vol. 11, No. 2, June, 1963).

[2] = total metabolic stability (% metabolization); assay type: in vitro ADME; details: in mice
Text: This compound has better total metabolic stability (11% metabolization in mice) than the product of Example 20 (99%) described in patent application WO 2006/056 696.

[3] = Caco2-TC7 permeability (Papp single point); assay type: in vitro ADME; details: human, Caco-2

| SMILES | IC50 [1] [nM] | total metabolic stability, % metabolization [2] [%] | Papp [3] [×10⁻⁶ cm/s] |
| --- | --- | --- | --- |
| CO[C@@H](C(=O)N[C@H]1C[S@+]([O-])c2ccccc2N(Cc2cc(F)cc(F)c2)C1=O)[C@H](O)[C@@H](O)[C@H](O)/C=C/C(C)(C)C [Example 2] | 20 |  |  |
| CO[C@@H](C(=O)N[C@H]1CSc2ccccc2N(Cc2ccccc2)C1=O)[C@H](O)[C@@H](O)[C@H](O)/C=C/C(C)(C)C [Example 3, N-[(3R)-5-benzyl-4-oxo-2,3,4,5-tetrahydro-1,5-benzothiazepin-3-yl]-(6E)-(2R,3R,4S,5R)-3,4,5-trihydroxy-2-methoxy-8,8-dimethyl non-6-enamide] | 10 |  |  |
| CO[C@@H](C(=O)N[C@H]1CSc2ccccc2N(C)C1=O)[C@H](O)[C@@H](O)[C@H](O)/C=C/C(C)(C)C [Example 4, N-[(3R)-5-methyl-4-oxo-2,3,4,5-tetrahydro-1,5-benzothiazepin-3-yl]-(6E)-(2R,3R,4S,5R)-3,4,5-trihydroxy-2-methoxy-8,8-dimethylnon-6-enamide] | 19 |  |  |
| CO[C@@H](C(=O)N[C@H]1CSc2c(Cl)cc(C(F)(F)F)cc2NC1=O)[C@H](O)[C@@H](O)[C@H](O)/C=C/C(C)(C)C [Example 5, N-((3R)-9-chloro-4-oxo-7-trifluoromethyl-2,3,4,5-tetrahydro-1,5-benzothiazepin-3-yl)-(6E)-(2R,3R,4S,5R)-3,4,5-trihydroxy-2-methoxy-8,8-dimethylnon-6-enamide] | 14 | 11 | 2.3 |

Now those with a lower IC50 [1], led by results:

| IC50 [1] [nM] | total metabolic stability, % metabolization [2] [%] | Papp [3] [×10⁻⁶ cm/s] | SMILES |
| --- | --- | --- | --- |
| 9 |  |  | CO[C@@H](C(=O)N[C@H]1C[S@@+]([O-])c2ccccc2N(Cc2cc(F)cc(F)c2)C1=O)[C@H](O)[C@@H](O)[C@H](O)/C=C/C(C)(C)C [Example 1] |
| 7 |  |  | CO[C@@H](C(=O)N[C@H]1CSc2ccccc2N(C)C1=O)[C@H](O)[C@@H](O)[C@H](O)/C=C/C1CCCC1 [Example 9, (2R,3R,4S,5R,6E)-7-cyclopentyl-3,4,5-trihydroxy-2-methoxy-N-[(3R)-5-methyl-4-oxo-2,3,4,5-tetrahydro-1,5-benzothiazepin-3-yl]hept-6-enamide] |
